Data on 2 compounds can be found in patent US20060134022A1, “Salivary stimulatory compositions and method of use thereof” (priority 2004, published 2006).

The nature of this series: Self warming mouthwash temperature increase vs. sulfite concentration on mixing sulfite phase with peroxide phase. Type of series: physicochemical. Conditions: approximate (plus/minus 2 degrees). The text has this:
The saliva stimulation effectiveness of the solution depends on raising its temperature before use. This may be done by conventional external heating means. Alternatively the sulfate, bisulfate or pyrosulfate may be produced in situ by utilizing a solution of the corresponding sulfite, bisulfite or metabisulfite and adding a solution of an orally acceptable peroxide thereto. The resulting reaction produces excess heat, thus raising the solution temperature. While the amount of peroxide added is not critical, it is desirable to use at least an amount substantially equivalent to the stoichiometric amount need to oxidize the salts in their reduced forms to the higher oxidation state.
Note: Temperatures are in Fahrenheit Degrees and are approximate (plus/minus 2 degrees).
Sulfite Concentrations listed below are final concentration in the mouthwash. Since the final mouthwash is formed from equal amounts of 2 separate phases, the sulfite concentration in the sulfite containing phase is double that in the final mouthwash.
Combine equal amounts of Phase A and Phase B, Just prior to use, to form the final mouth rinse

Setting [1] is: 1% final concentration in the mouthwash.
Where [2] appears, read: 2% final concentration in the mouthwash.
The mark [3] stands for this setting: 4% final concentration in the mouthwash.

On to `O=S([O-])[O-].[Na+].[Na+]` [Sodium Sulfite], for which the “Final Temp.” value runs as follows: under setting [1], 98.1 Fahrenheit Degrees; under setting [2], 110.7 Fahrenheit Degrees; under setting [3], 133.5 Fahrenheit Degrees. Also, the “Temp. Increase” value under setting [1] was 10.2 Fahrenheit Degrees, the “Temp. Increase” value under setting [2] is 21.4 Fahrenheit Degrees and the “Temp. Increase” value under setting [3] is on record as 43.0 Fahrenheit Degrees.

On to `O=S([O-])S(=O)(=O)[O-].[Na+].[Na+]` [Sodium Metabisulfite], for which the “Final Temp.” value is, setting by setting: under setting [1], 97.3 Fahrenheit Degrees; under setting [2], 113.2 Fahrenheit Degrees; under setting [3], 142.0 Fahrenheit Degrees. The “Temp. Increase” value runs as follows: under setting [1], 12.1 Fahrenheit Degrees; under setting [2], 27.2 Fahrenheit Degrees; under setting [3], 55.9 Fahrenheit Degrees.
